Test results as given in US10590106B2, “Certain chemical entities, compositions, and methods” (NeuPharma, Inc., priority 2012, dated 2020).

Tests used:
BRAF V600E = BRAF V600E (Homo sapiens (Human), UniProt P15056, V600E); assay: Inhibitory activity against kinase BRAF V600E, Z'-LYTE method (Invitrogen); assay type: biochemical; conditions: 1 μM compound; read-out: Inhibition (% inhibition at 1 μM) against BRAF V600E
Description: (§1) Inhibitory activities Inhibitory activities of compounds against BRAF, and BRAF V600E were measured by Invitrogen using Z′-LYTE® Method as briefly described in the following. 4× Test compounds are dissolved in 1% DMSO. […] ATP solutions are diluted to a 4×ATP working concentration in Kinase Buffer (50 mM HEPES pH 7.5, 0.01% BRIJ-35, 10 mM MgCl2, 1 mM EGTA). Reaction started by 30-second shaking of mixture consisting of 2.5 μL 4× test compound, […] and 2.5 μL 4×ATP Solution on Bar-coded Corning, low volume NBS, black 384-well plate (Corning Cat. #3676). Then the mixture was incubated for 60-minute at room temperature for the kinase reaction, followed by addition of 5 μL of a 1:1024 dilution of development reagent A and 30-second plate shake. The mixture was then incubated for another 60-minute at room temperature for development reaction. Fluorescence was read by plate reader. IC50 was calculated by plotting the concentration of compound vs the percentage of inhibition in treated wells using GraphPad Prism 5.
(§2) Table 2 and 3 show % inhibition at 1 μM of several compounds of the invention against BRAF and BRAF V600E, respectively, using Z′-LYTE® method.
The scale utilized in Table 4 is as follows: +++ less than 100 nM; and ++ greater than 100 nM.

KDR (VEGFR2) = KDR (VEGFR2) (Homo sapiens (Human), UniProt P35968); assay: Inhibitory activity against kinase KDR, Z'-LYTE method (Invitrogen); assay type: biochemical; conditions: 1 μM compound; read-out: Inhibition (% inhibition at 1 μM) against KDR
Description: Inhibitory activities of compounds against KDR (VEGFR2) were also measured by Invitrogen using Z′-LYTE® Method as described above with the following modification. The 2× KDR (VEGFR2)/Tyr 01 mixture is prepared in 50 mM HEPES pH 7.5, 0.01% BRIJ-35, 10 mM MgCl2, 1 mM EGTA. The final 10 μL Kinase Reaction consists of 0.5-11.7 ng KDR (VEGFR2) and 2 μM Tyr 01 in 50 mM HEPES pH 7.5, 0.01% BRIJ-35, 10 mM MgCl2, 1 mM EGTA. After the 1 hour Kinase Reaction incubation, 5 μL of a 1:256 dilution of Development Reagent B is added.
The scale utilized in Table 5 is as follows: +++ less than 100 nM; and ++ greater than 100 nM

A375 cells = assay: Inhibition of cancer cell growth, MTT or MTS assay, A375; assay type: cell-based; conditions: Homo sapiens, A-375; 72 h incubation
Description: (§3) Inhibition of cell growth by compounds was measured using MTT or MTS assay. Tumor cell lines were purchased from ATCC (American Type Culture Collection, Manassas, Va.). All cell lines were maintained in RPMI 1640 (Hyclone) supplemented with 10% fetal bovine serum (FBS, Hyclone), glutamine (2 mM, Hyclone), and antibiotics (penicillin 100 U/mL and streptomycin 50 μg/mL) at 37° C. in a humidified atmosphere of 5% CO2 in air. Taxol (as a positive control, Sigma) and compounds were dissolved in DMSO (Sigma), and the final concentration of DMSO in the medium was 1%. Tumor cells were plated in 96-well plates at densities of about 2000 (A375) or 4000 (A549 and Colo205) cells/well of a 96-well plate and allowed to adhere/grow for 24 h. They were then treated with various concentrations of drug and incubated for 72 h. For MTT method, medium was then removed by inverting and tapping the plates. 100 μL of MTT (0.5 mg/ml) was added to each well followed by an incubated at 37° C. for 4 h. MTT was then removed and 200 μL of DMSO was added to each well, and the ODs at 570 nm were measured after a 5 second shaking cycle in a 96-well spectrophotometer. For MTS method, 20 μL MTS (CellTiter 96 Aqueous One Solution, Promega) was added to each well followed by an incubated at 37° C. for 2-4 h, solutions were then directly put in a 96-well spectrophotometer, and the ODs at 490 nm were measured.
(§4) All concentrations of compounds were tested in triplicate and controls were averaged over 4 wells. IC50 was calculated by plotting the concentration of compound vs the percentage of inhibition in treated wells using GraphPad Prism 5. […] The scale utilized in Tables […] is as follows: +++ less than 1000 nM; ++ between 1000 nM and 5000 nM; and + greater than 5000 nM. The scale utilized in Table 8 is as follows: +++ less than 2000 nM; ++ between 2000 nM and 5000 nM; and + greater than 5000 nM.

A549 cells = assay: Inhibition of cancer cell growth, MTT or MTS assay, A549; assay type: cell-based; conditions: Homo sapiens, 72 h incubation
Description: as §3, §4

BRAF = BRAF (Homo sapiens (Human), UniProt P15056); assay: Inhibitory activity against kinase BRAF, Z'-LYTE method (Invitrogen); assay type: biochemical; conditions: 1 μM compound
Description: as §1, §2

Chain of BRAF (P15056 whole entry): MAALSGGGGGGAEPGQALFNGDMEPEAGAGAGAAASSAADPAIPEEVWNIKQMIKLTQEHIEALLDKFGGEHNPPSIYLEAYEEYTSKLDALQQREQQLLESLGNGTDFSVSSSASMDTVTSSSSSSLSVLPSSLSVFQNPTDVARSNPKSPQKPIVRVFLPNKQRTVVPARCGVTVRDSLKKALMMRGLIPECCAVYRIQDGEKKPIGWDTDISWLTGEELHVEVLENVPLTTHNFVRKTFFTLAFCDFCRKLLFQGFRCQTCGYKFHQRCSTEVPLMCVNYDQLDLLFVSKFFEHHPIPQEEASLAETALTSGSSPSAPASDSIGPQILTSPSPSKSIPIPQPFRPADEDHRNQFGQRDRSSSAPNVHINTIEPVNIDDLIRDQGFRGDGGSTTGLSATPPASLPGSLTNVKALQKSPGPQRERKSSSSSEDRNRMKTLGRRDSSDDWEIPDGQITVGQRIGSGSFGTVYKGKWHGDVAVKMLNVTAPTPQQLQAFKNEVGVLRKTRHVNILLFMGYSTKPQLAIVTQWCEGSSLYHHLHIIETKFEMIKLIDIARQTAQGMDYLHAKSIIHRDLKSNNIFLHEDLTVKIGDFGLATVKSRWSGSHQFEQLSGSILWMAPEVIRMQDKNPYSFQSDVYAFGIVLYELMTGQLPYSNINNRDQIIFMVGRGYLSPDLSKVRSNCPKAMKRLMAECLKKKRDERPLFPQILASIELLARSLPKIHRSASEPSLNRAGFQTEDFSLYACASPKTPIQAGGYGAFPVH
Chain of BRAF V600E (P15056 whole entry V600E): as the sequence (P15056 whole entry) above, with V600E counted along it
Chain of KDR (VEGFR2) (P35968 20-1356): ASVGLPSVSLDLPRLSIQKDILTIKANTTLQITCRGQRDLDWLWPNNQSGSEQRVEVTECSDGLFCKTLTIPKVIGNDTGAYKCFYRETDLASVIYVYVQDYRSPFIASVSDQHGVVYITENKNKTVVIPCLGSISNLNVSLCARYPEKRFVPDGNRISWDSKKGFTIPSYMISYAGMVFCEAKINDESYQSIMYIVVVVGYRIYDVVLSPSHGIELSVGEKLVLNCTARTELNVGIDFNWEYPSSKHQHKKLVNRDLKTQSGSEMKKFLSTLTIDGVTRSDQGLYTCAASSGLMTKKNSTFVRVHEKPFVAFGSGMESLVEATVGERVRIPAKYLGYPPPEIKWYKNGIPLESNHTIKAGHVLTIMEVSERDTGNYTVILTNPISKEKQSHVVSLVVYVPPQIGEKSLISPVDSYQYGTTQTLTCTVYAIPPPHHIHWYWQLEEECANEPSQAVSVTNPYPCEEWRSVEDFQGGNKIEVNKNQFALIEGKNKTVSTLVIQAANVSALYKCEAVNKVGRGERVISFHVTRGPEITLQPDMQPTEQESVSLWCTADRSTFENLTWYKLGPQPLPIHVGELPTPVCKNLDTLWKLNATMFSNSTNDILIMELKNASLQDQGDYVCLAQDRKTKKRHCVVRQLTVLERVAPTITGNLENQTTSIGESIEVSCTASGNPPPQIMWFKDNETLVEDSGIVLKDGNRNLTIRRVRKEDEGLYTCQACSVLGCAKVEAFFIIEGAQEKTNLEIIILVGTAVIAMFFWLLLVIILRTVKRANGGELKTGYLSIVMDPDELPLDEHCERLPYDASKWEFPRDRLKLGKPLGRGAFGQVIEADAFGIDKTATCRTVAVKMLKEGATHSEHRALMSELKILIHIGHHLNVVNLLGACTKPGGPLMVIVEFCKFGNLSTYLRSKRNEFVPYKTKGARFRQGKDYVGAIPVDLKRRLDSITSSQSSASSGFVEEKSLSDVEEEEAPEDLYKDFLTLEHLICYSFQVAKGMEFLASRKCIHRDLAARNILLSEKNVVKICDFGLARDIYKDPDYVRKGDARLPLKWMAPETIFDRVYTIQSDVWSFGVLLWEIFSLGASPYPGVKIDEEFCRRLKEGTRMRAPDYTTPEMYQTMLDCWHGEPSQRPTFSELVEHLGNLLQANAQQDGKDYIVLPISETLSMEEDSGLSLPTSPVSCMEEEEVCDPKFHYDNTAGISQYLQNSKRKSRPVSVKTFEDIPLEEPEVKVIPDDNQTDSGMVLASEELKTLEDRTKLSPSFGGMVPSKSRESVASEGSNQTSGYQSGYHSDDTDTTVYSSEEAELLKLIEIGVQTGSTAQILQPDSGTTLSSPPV

Compound | inhibition at 1 µM (BRAF V600E) [%] | inhibition at 1 µM (KDR (VEGFR2)) [%] | IC50 (A375 cells) [µM] | IC50 (A549 cells) [µM] | inhibition at 1 µM (BRAF) [%]
O=C(Nc1cccc(Oc2ccc3ncc(N4CCNCC4)nc3c2)c1)Nc1ccc(F)c(F)c1 [Compound C036, 1-(3,4-difluorophenyl)-3-(3-((3-(piperazin-1-yl)quinoxalin-6-yl)oxy)phenyl)urea] | > 89 | > 89 | – | > 5 | > 89
O=C(Nc1ccc(F)cc1)Nc1cccc(Oc2ccc3ncc(N4CCNCC4)nc3c2)c1 [Compound C038, 1-(4-fluorophenyl)-3-(3-((3-(piperazin-1-yl)quinoxalin-6-yl)oxy)phenyl)urea] | > 89 | > 89 | – | > 5 | > 89
O=C(Nc1cc(F)cc(F)c1)Nc1cccc(Oc2ccc3ncc(N4CCNCC4)nc3c2)c1 [Compound C039, 1-(3,5-difluorophenyl)-3-(3-((3-(piperazin-1-yl)quinoxalin-6-yl)oxy)phenyl)urea] | > 89 | 70 to 89 | – | > 5 | > 89
O=C(Nc1ccc(Oc2ccc3nccnc3c2)cc1)Nc1ccc(Cl)c(C(F)(F)F)c1 [Compound C076, 1-(4-chloro-3-(trifluoromethyl)phenyl)-3-(4-(quinoxalin-6-yloxy)phenyl)urea] | 70 to 89 | 70 to 89 | 1 to 5 | > 5 | –
O=C(Nc1ccc(Cl)c(C(F)(F)F)c1)Nc1ccc(Oc2ccc3nccnc3c2)cc1F [Compound C095, 1-(4-chloro-3-(trifluoromethyl)phenyl)-3-(2-fluoro-4-(quinoxalin-6-yloxy)phenyl)urea] | < 70 | 70 to 89 | > 5 | 2 to 5 | –
O=C(Nc1ccc(F)c(C(F)(F)F)c1)Nc1ccc(Oc2ccc3nccnc3c2)cc1F [Compound C098, 1-(4-fluoro-3-(trifluoromethyl)phenyl)-3-(2-fluoro-4-(quinoxalin-6-yloxy)phenyl)urea] | 70 to 89 | < 70 | 1 to 5 | > 5 | –

Continued, values first:

inhibition at 1 µM (BRAF V600E) [%] | inhibition at 1 µM (KDR (VEGFR2)) [%] | IC50 (A375 cells) [µM] | IC50 (A549 cells) [µM] | inhibition at 1 µM (BRAF) [%] | Compound
70 to 89 | 70 to 89 | < 1 | < 2 | – | O=C(Nc1cc(F)cc(Oc2ccc3ncc(N4CCOCC4)nc3c2)c1)Nc1ccc(Cl)c(C(F)(F)F)c1 [Compound C033, 1-(4-chloro-3-(trifluoromethyl)phenyl)-3-(3-fluoro-5-((3-morpholinoquinoxalin-6-yl)oxy)phenyl)urea]
70 to 89 | 70 to 89 | < 1 | 2 to 5 | – | O=C(Nc1cccc(C(F)(F)F)c1)Nc1ccc(F)c(Oc2ccc3ncc(N4CCOCC4)nc3c2)c1 [Compound C035, 1-(4-fluoro-3-((3-morpholinoquinoxalin-6-yl)oxy)phenyl)-3-(3-(trifluoromethyl)phenyl)urea]
> 89 | 70 to 89 | 1 to 5 | 2 to 5 | – | O=C(Nc1cccc(Oc2ccc3ncc(N4CCOCC4)nc3c2)c1)Nc1cccc(C(F)(F)F)c1 [Compound C046, 1-(3-((3-morpholinoquinoxalin-6-yl)oxy)phenyl)-3-(3-(trifluoromethyl)phenyl)urea]
70 to 89 | > 89 | 1 to 5 | 2 to 5 | – | O=C(Nc1ccc(Oc2ccc3ncc(N4CCOCC4)nc3c2)cc1)Nc1ccc(Cl)c(C(F)(F)F)c1 [Compound C084, 1-(4-chloro-3-(trifluoromethyl)phenyl)-3-(4-((3-morpholinoquinoxalin-6-yl)oxy)phenyl)urea]
70 to 89 | > 89 | 1 to 5 | 2 to 5 | – | O=C(Nc1ccc(Oc2ccc3ncc(N4CCOCC4)nc3c2)cc1)Nc1ccc(F)c(C(F)(F)F)c1 [Compound C086, 1-(4-fluoro-3-(trifluoromethyl)phenyl)-3-(4-((3-morpholinoquinoxalin-6-yl)oxy)phenyl)urea]
